{"source": "patent US20260198495A1", "about": "“BINARY INSECTICIDE COMPOSITION AND USE THEREOF” (SHENYANG SINOCHEM AGROCHEMICALS R & D CO., LTD., priority 2022, published 2026)", "type_in_all_cases": "in vivo", "key": {"[1]": {"test_system": "3rd-instar larvae of Plutella xylostella", "experiment": "Joint toxicity of I-72 + metaflumizone, airbrush spraying, Example 4, Table 4", "conditions": "airbrush spraying of cabbage leaf disks, 72 h, A = compound I-72, B = metaflumizone", "description": "Test target: 3rd-instar larvae of Plutella xylostella, a sensitive strain reared indoors.\nTest conditions: temperature: 25-27° C., humidity: RH 60%, and illumination: L:D=14:10\nExperimental method: the airbrush spraying method was adopted. The cabbage cultivated in the greenhouse was taken and made into leaf disks with a diameter of 3 cm. After uniform spraying treatment with an airbrush manual sprayer, the leaf disks were placed in a 9-cm Petri dish lined with filter paper. After natural air-drying in the shade, the standard test insects were introduced, and the number of dead and live insects was investigated 72 h later.\nThe preparation of the pesticide solution and the evaluation method (Sun Y-P) for the joint action type of the mixture were the same as those in Example 1."}, "[2]": {"test_system": "3rd-instar larvae of Pyrausta nubilalis Hubern", "experiment": "Joint toxicity of I-72 + metaflumizone, artificial diet-pesticide film, Example 2, Table 2", "conditions": "72 h, A = compound I-72, B = metaflumizone", "description": "(§1) Test subject: 3rd-instar larvae of Pyrausta nubilalis Hubern, a sensitive strain reared indoors.\n(§2) Experimental method: the artificial diet-pesticide film method was adopted. A standard clean 24-well culture plate was selected. 1 ml of artificial diet was added to each well. After the diet cooled and solidified, a quantitative amount of a pesticide solution was added to the culture plate using a continuous sampler, and then it was air-dried naturally in the shade. The standard test insects were introduced, with 1 insect in each well, a total of 48 insects. The treated test insects were placed in an observation room under certain conditions. The reaction of the test insects was regularly observed, and the number of dead and live insects was investigated 72 h later.\n(§3) The test conditions, the preparation method of the pesticide solution, and the evaluation method (Sun Y-P) for the joint action type of the mixture were the same as those in Example 1."}, "[3]": {"test_system": "3rd-instar larvae of Chilo suppressalis (Walker)", "experiment": "Joint toxicity of I-72 + organophosphorus insecticides, rice seedling dipping, Example 15, Table 15", "conditions": "48 h", "description": "Test target: 3rd-instar larvae of Chilo suppressalis (Walker), a sensitive strain reared indoors.\n(§4) Preparation of the pesticide solution: according to different test requirements, the test samples were accurately weighed respectively with an electronic analytical balance. The technical pesticides were dissolved in acetone, and then diluted with 0.1% Tween 80 water into a series of pesticide solutions with a certain concentration gradient according to the experimental design dosage.\n(§5) Experimental method: first, tender and fresh rice seedlings were selected and dipped in the prepared pesticide solution for 10 s in the order from low dosage to high dosage according to the experimental design. After natural air-drying in the shade, they were cut into small sections of 5 cm, placed in a 9-cm-diameter Petri dish with filter paper, and uniform and healthy test insects were introduced, with 10 insects for each treatment and 3 replicates for each treatment. In addition, a blank control was set up.\n(§6) The treated test materials were placed in an observation room, and the temperature, humidity and illumination of the observation room could be adjusted as needed. The number of dead and live insects was investigated 48 hours later. The corrected mortality rate was calculated using the Abbott's formula, and statistical analysis was performed with the DPS data processing software to obtain the toxicity regression equation, LC50 value and 95% confidence limit of each single test pesticide and each mixture of different ratios. Then, the co-toxicity coefficient of each ratio was calculated using the Sun Y-P method to evaluate the mixing effect (the same as in Example 1)."}, "[4]": {"test_system": "3rd-instar larvae of Ostrinia furnacalis Guenee", "experiment": "Joint toxicity of I-72 + organophosphorus insecticides, corn stalk dipping, Example 21, Table 21", "conditions": "48 h", "description": "Test target: 3rd-instar larvae of Ostrinia furnacalis Guenee, a sensitive strain reared indoors.\nas §4\nas §5, with “first, fresh” for “first,”, “corn stalks cultivated in the greenhouse” for “and fresh rice seedlings”, “selected, cut into small sections of 3 cm,” for “selected”, “were” for “were cut into small sections of 5 cm,”\nas §6"}, "adult Phyllotreta spp.": {"test_system": "adult Phyllotreta spp.", "experiment": "Joint toxicity of I-72 + organophosphorus insecticides, cabbage seedling spraying, Example 19, Table 19", "conditions": "72 h", "description": "Test target: adult Phyllotreta spp., a sensitive strain reared indoors.\nas §4\nExperimental method: first, fresh cabbage seedlings cultivated in the greenhouse were selected and evenly sprayed with the pesticide solution in the order from low dosage to high dosage according to the experimental design. After natural air-drying in the shade, they were covered with a glass cover, and uniform and healthy test insects were introduced, with 10 insects for each treatment and 3 replicates for each treatment. In addition, a blank control was set up.\nas §6, with “72” for “48”"}, "[5]": {"test_system": "Bemisia tabaci (Gennadius) nymphs", "experiment": "Joint toxicity of I-72 + organophosphorus insecticides, cotton leaf-disk spraying, Example 18, Table 18", "conditions": "96 h", "description": "Test target: Bemisia tabaci (Gennadius) nymphs.\nas §4\n(§7) Experimental method: first, cotton leaves with neat and consistent Bemisia tabaci (Gennadius) nymphs were selected and made into leaf disks, with about 20 insects on each leaf disk. Then, they were evenly sprayed with the pesticide solution in the order from low dosage to high dosage according to the experimental design, with 1.5 mL for each leaf and 3 replicates for each treatment. In addition, a blank control was set up.\nas §6, with “96” for “48”"}, "[6]": {"test_system": "early 2nd-instar grubs of Holotrichia diomphalia Bates", "experiment": "whole plant or invertebrate", "description": "Test target: early 2nd-instar grubs of Holotrichia diomphalia Bates.\n(§8) Test conditions: temperature: 24-26° C., humidity: RH 60%, and illumination: L:D=14:10\nas §4\nExperimental method: the activity against Holotrichia diomphalia Bates was determined by the insect-dipping method. The early 2nd-instar grubs of Holotrichia diomphalia Bates were selected. The target insects were dipped into the pesticide solution for 10 s and then taken out. Excess pesticide solution was absorbed with filter paper. […] A treatment without the pesticide was set as the blank control.\nThe test insects were transferred to a multi-well culture plate with fresh potato pieces and placed in an observation room, and the temperature, humidity and illumination of the observation room could be adjusted as needed. The number of dead and live insects was investigated 72 hours later. The corrected mortality rate was calculated using the Abbott's formula, and statistical analysis was performed with the DPS data processing software to obtain the toxicity regression equation and LC50 value of each single test pesticide and each mixture of different ratios."}, "[7]": {"test_system": "Aphis gossypii Glover nymphs", "experiment": "Joint toxicity of I-72 + organophosphorus insecticides, cotton leaf spraying, Example 17, Table 17", "conditions": "48 h", "description": "Test target: Aphis gossypii Glover nymphs, a sensitive strain reared indoors.\nas §4\nas §7, with “uniform” for “neat”, “Aphis gossypii” for “Bemisia tabaci (Gennadius) nymphs”, “selected,” for “selected and made into leaf disks,”, “leaf.” for “leaf disk.”\nas §6"}, "[8]": {"test_system": "3rd-instar larvae of Spodoptera frugiperda", "experiment": "Joint toxicity of I-72 + indoxacarb, corn leaf dipping, Example 3, Table 3", "conditions": "72 h, A = compound I-72, B = indoxacarb", "description": "(§9) Test subject: 3rd-instar larvae of Spodoptera frugiperda, a sensitive strain reared indoors.\n(§10) Experimental method: the dipping method was adopted. The corn leaves cultivated in the greenhouse were taken, cut into leaf segments of 5 cm long, dipped in the prepared pesticide solution for 10 s, and then cut into small pieces of 1.5 cm×1.5 cm after natural air-drying in the shade. These pieces were placed in a 24-well culture plate, and the standard test insects were introduced, with 48 insects for each treatment. The treated test insects were placed in an observation room under certain conditions. The reaction of the test insects was regularly observed, and the number of dead and live insects was investigated 72 h later.\nas §3"}, "[9]": {"test_system": "3rd-instar larvae of Spodoptera exigua Hübner", "experiment": "Joint toxicity (LC50, CTC) of I-72 + indoxacarb, leaf-disk dipping, Example 1, Table 1", "conditions": "cabbage leaf-disk dipping, 72 h, A = compound I-72, B = indoxacarb", "description": "Test subject: 3rd-instar larvae of Spodoptera exigua Hübner, a sensitive strain reared indoors.\nTest conditions: temperature: 24-26° C., humidity: RH 60%, and illumination: L:D=14:10.\n(§11) Preparation method: the test pesticides were accurately weighed respectively with an electronic analytical balance. After the two technical materials were respectively added into an appropriate amount of solvent and completely dissolved, the stock solution of the required concentration was prepared with water containing 0.1% Tween 80. The stock solutions of the two active ingredients were mixed in a certain ratio to prepare a mixed solution, which was then diluted respectively into a series of pesticide solutions with a certain concentration gradient according to the experimental design dosage.\nExperimental method: the dipping method was adopted. […]\nThe co-toxicity coefficient (CTC value) of the mixture was calculated according to the following formula:\n[formula] • in the formula: ATI-measured toxicity index of the mixture; S-LC50 of the standard pesticide; and M-LC50 of the mixture. […]\n[formula] • in the formula: CTC-co-toxicity coefficient; ATI-measured toxicity index of the mixture; and TTI-theoretical toxicity index of the mixture. • CTC-co-toxicity coefficient • ATI-measured toxicity index of the mixture • TTI-theoretical toxicity index of the mixture"}, "[10]": {"test_system": "Frankliniella occidentalis Pergande", "experiment": "Joint toxicity of I-72 + organophosphorus insecticides, leaf dipping, Example 14, Table 14", "conditions": "in Phaseolus vulgaris, foliar, 48 h", "excerpt": "Test target: Frankliniella occidentalis Pergande, a sensitive strain reared indoors.\nExperimental method: first, kidney bean leaves were selected and dipped in the prepared pesticide solution for 10 s in the order from low dosage to high dosage according to the experimental design. After natural air-drying in the shade, they were placed in a 9-cm-diameter Petri dish with filter paper, and uniform and healthy test insects were introduced, with about 20 insects for each treatment and 3 replicates for each treatment. In addition, a blank control was set up."}, "[11]": {"test_system": "3rd-instar larvae of Hyphantria cunea", "experiment": "Joint toxicity of I-72 + organophosphorus insecticides, poplar leaf dipping, Example 20, Table 20", "conditions": "foliar, A = compound I-72, B = phoxim, poplar leaf dipping, 72 hours, read-out: LC50", "excerpt": "Test target: 3rd-instar larvae of Hyphantria cunea, a sensitive strain reared indoors.\nExperimental method: first, fresh and tender poplar leaves were selected, cut into small sections of 5 cm, and dipped in the prepared pesticide solution for 10 s in the order from low dosage to high dosage according to the experimental design. After natural air-drying in the shade, they were placed in a 9-cm-diameter Petri dish with filter paper, and uniform and healthy test insects were introduced, with 10 insects for each treatment and 3 replicates for each treatment. In addition, a blank control was set up.\nThe treated test materials were placed in an observation room, and the temperature, humidity and illumination of the observation room could be adjusted as needed. The number of dead and live insects was investigated 72 hours later."}, "[12]": {"test_system": "3rd-instar larvae of Spodoptera frugiperda", "experiment": "Joint toxicity of I-72 + spinosad, corn leaf dipping, Example 10, Table 10", "conditions": "72 h, A = compound I-72, B = spinosad", "description": "as §9, §10\nThe test conditions, the preparation of the pesticide solution and the evaluation method were the same as those in Example 1."}, "[13]": {"test_system": "3rd-instar larvae of Pyrausta nubilalis Hubern", "experiment": "Synergism assay (Bliss) of I-72 + abamectin, spinosad, spinetoram, emamectin benzoate, Example 6, Table 6", "conditions": "72 h", "description": "as §1, §8, §11, §2\nThe evaluation method adopted was the Bliss method. This method is applicable to the qualitative screening of insecticidal compositions. According to the concept of independent joint action he proposed, Bliss believes that the theoretical mortality rate P when insecticides are used in combination can be calculated by the following formula: […]\nPm is the mortality rate (%) of the target when the first active ingredient is at a concentration of m; and Pn is the mortality rate (%) of the target when the second active ingredient is at a concentration of n.\nIf the actual mortality rate of the target after the two active ingredients are mixed at a certain concentration is greater than theoretical mortality rate P, it is determined that the two active ingredients have a synergistic effect when used in combination at the set concentration, and otherwise, they have an antagonistic effect."}}, "note": "Where two headings read alike, the source gives them in different places."}
{"compound": "N#Cc1ccc(CC(=NNC(=O)Nc2ccc(OC(F)(F)F)cc2)c2cccc(C(F)(F)F)c2)cc1", "note": "(mixture of isomers) [metaflumizone, reference compound]", "values": [{"measurement": "LC50", "setting": "[1]", "result": 12.8933, "unit": "µg/mL"}, {"measurement": "LC50", "setting": "[2]", "result": 1.0724, "unit": "µg/mL"}]}
{"compound": "COP(=O)(NC(C)=O)SC", "note": "(stereo not drawn) [acephate]", "values": [{"measurement": "LC50", "setting": "[3]", "result": 11.1, "unit": "µg/mL"}, {"measurement": "LC50", "setting": "[4]", "result": 15.5, "unit": "µg/mL"}, {"measurement": "LC50", "setting": "adult Phyllotreta spp.", "result": 61.6, "unit": "µg/mL"}, {"measurement": "LC50", "setting": "[5]", "result": 34.9, "unit": "µg/mL"}]}
{"compound": "CO/C=C(/C(=O)OC)c1ccccc1Oc1cc(Oc2ccccc2C#N)ncn1", "note": "[azoxystrobin]", "values": [{"measurement": "LC50", "setting": "[6]; A = compound I-72, B = azoxystrobin, insect-dipping, 72 hours", "result": 473.5404, "unit": "µg/mL"}]}
{"compound": "CCOP(=S)(OCC)Oc1cc(C)nc(C(C)C)n1", "note": "[diazinon]", "values": [{"measurement": "LC50", "setting": "[3]; 3rd-instar larvae, rice seedling dipping, A = compound I-72, B = diazinon, read-out: LC50", "result": 6.22, "unit": "µg/mL"}, {"measurement": "LC50", "setting": "[7]", "result": 20.5, "unit": "µg/mL"}]}
{"compound": "CC1COC(Cn2cncn2)(c2ccc(Oc3ccc(Cl)cc3)cc2Cl)O1", "note": "(stereo not drawn) [difenoconazole]", "values": [{"measurement": "LC50", "setting": "[6]; Holotrichia diomphalia, 72 h", "result": 500, "unit": "µg/mL"}]}
{"compound": "COC(=O)N(C(=O)N1CO[C@@]2(C(=O)OC)Cc3cc(Cl)ccc3C2=N1)c1ccc(OC(F)(F)F)cc1", "note": "[indoxacarb, reference compound]", "values": [{"measurement": "LC50", "setting": "[8]", "result": 2.2438, "unit": "µg/mL"}, {"measurement": "LC50", "setting": "[9]", "result": 0.8555, "unit": "µg/mL"}]}
{"compound": "CCOC(=O)CC(SP(=S)(OC)OC)C(=O)OCC", "note": "(stereo not drawn) [malathion]", "values": [{"measurement": "LC50", "setting": "[10]", "result": 52.3, "unit": "µg/mL"}]}
{"compound": "CCOP(=S)(OCC)O/N=C(\\C#N)c1ccccc1", "note": "[phoxim]", "values": [{"measurement": "LC50", "setting": "[7]; nymphs, cotton leaf spraying, A = compound I-72, B = phoxim, read-out: LC50", "result": 31.6, "unit": "µg/mL"}, {"measurement": "LC50", "setting": "[11]", "result": 10.1, "unit": "µg/mL"}]}
{"compound": "CC(C)(C)C(O)(CCc1ccc(Cl)cc1)Cn1cncn1", "note": "(stereo not drawn) [tebuconazole]", "values": [{"measurement": "LC50", "setting": "[6]; Holotrichia diomphalia, 72 h", "result": 477, "unit": "µg/mL"}]}
{"compound": "spinosad", "values": [{"measurement": "LC50", "setting": "[12]", "result": 1.1242, "unit": "µg/mL"}, {"measurement": "Mortality rate (%)", "setting": "[13]; single agent 0.1 mg/L", "result": 4.17, "unit": "%"}, {"measurement": "Mortality rate (%)", "setting": "[13]; single agent 1 mg/L", "result": 52.08, "unit": "%"}, {"measurement": "Mortality rate (%)", "setting": "[13]; single agent 2 mg/L", "result": 68.75, "unit": "%"}, {"measurement": "Mortality rate (%)", "setting": "[13]; single agent 5 mg/L", "result": 79.17, "unit": "%"}]}
